Experimental data published in ChEMBL document CHEMBL1153587, “Design, synthesis and biological evaluation of novel nitrogen and sulfur containing hetero-1,4-naphthoquinones as potent antifungal and antibacterial agents” (2009).
Values after ≈ are worked out from the molar mass of the structure shown.

Legend:
Format in all cases: functional
Escherichia coli = assay: Antibacterial activity against Escherichia coli after 24 hrs by broth microdilution method
Klebsiella pneumoniae = assay: Antibacterial activity against Klebsiella pneumoniae ATCC 27736 after 24 hrs by broth microdilution method
Staphylococcus aureus = assay: Antibacterial activity against Staphylococcus aureus ATCC 25923 after 24 hrs by broth microdilution method
Candida parapsilosis = assay: Antifungal activity against Candida parapsilosis ATCC 22019 after 48 hrs by broth microdilution method; conditions: Lodderomyces parapsilosis, ATCC 22019, 48 h
Cryptococcus neoformans = assay: Antifungal activity against Cryptococcus neoformans after 72 hrs by broth microdilution method
Aspergillus fumigatus = assay: Antifungal activity against Aspergillus fumigatus after 72 hrs by broth microdilution method
Candida albicans = assay: Antifungal activity against Candida albicans after 48 hrs by broth microdilution method
[1] = test system: Trichophyton mentagrophytes; assay: Antifungal activity against sTrichophyton mentagrophytes after 96 hrs by broth microdilution method
Sporothrix schenckii = assay: Antifungal activity against Sporothrix schenckii after 72 hrs by broth microdilution method

| Molecule | MIC (Escherichia coli) [µg/mL] | MIC (Klebsiella pneumoniae; ATCC 27736, 24 h) [µg/mL] | MIC (Staphylococcus aureus; ATCC 25923, 24 h) [µg/mL] | MIC (Klebsiella pneumoniae) [µg/mL] | MIC (Staphylococcus aureus) [µg/mL] | MIC (Candida parapsilosis) [µg/mL] | MIC (Cryptococcus neoformans) [µg/mL] | MIC (Aspergillus fumigatus) [µg/mL] | MIC (Candida albicans) [µg/mL] | MIC [1] [µg/mL] | MIC (Sporothrix schenckii) [µg/mL] |
| --- | --- | --- | --- | --- | --- | --- | --- | --- | --- | --- | --- |
| O=c1c2[nH]c3ccccc3sc=2c(=O)c2ccccc12 | 25 (≈ 89.5 µM) | > 50 | 25 (≈ 89.5 µM) | – | – | – | – | – | – | – | – |
| COc1cccc(SC2=C(N(c3ccccc3)c3ccccc3)C(=O)c3ccccc3C2=O)c1 | > 50 | 50 (≈ 108 µM) | 25 (≈ 53.9 µM) | – | – | – | – | – | – | – | – |
| O=C1C(Cl)=C(Sc2ccccc2)C(=O)c2ccccc21 | 12.5 (≈ 41.6 µM) | > 50 | 25 (≈ 83.1 µM) | – | – | – | – | – | – | – | – |
| GENTAMICIN | 0.18 | – | – | 0.39 | 0.78 | – | – | – | – | – | – |
| O=C1C(Cl)=C(Nc2ccc(O)cc2)C(=O)c2ccccc21 | > 50 | 6.25 (≈ 20.9 µM) | 6.25 (≈ 20.9 µM) | – | – | 6.25 (≈ 20.9 µM) | 0.78 (≈ 2.6 µM) | 3.12 (≈ 10.4 µM) | 1.56 (≈ 5.2 µM) | 1.56 (≈ 5.2 µM) | 1.56 (≈ 5.2 µM) |
| NCC[C@H](O)C(=O)N[C@@H]1C[C@H](N)[C@@H](O[C@H]2O[C@H](CN)[C@@H](O)[C@H](O)[C@H]2O)[C@H](O)[C@H]1O[C@H]1O[C@H](CO)[C@@H](O)[C@H](N)[C@H]1O [AMIKACIN] | 1 (≈ 1.71 µM) | 1 (≈ 1.71 µM) | 16 (≈ 27.3 µM) | – | – | – | – | – | – | – | – |
| COc1cccc(SC2=C(N)C(=O)c3ccccc3C2=O)c1 | > 50 | 12.5 (≈ 40.1 µM) | 25 (≈ 80.3 µM) | – | – | 25 (≈ 80.3 µM) | 12.5 (≈ 40.1 µM) | 6.25 (≈ 20.1 µM) | 12.5 (≈ 40.1 µM) | 12.5 (≈ 40.1 µM) | 25 (≈ 80.3 µM) |
| Nc1c2ccccc2nc2c(=O)c3ccccc3c(=O)c=2n1-c1ccccc1 | – | – | – | – | – | 25 (≈ 68.4 µM) | 25 (≈ 68.4 µM) | > 50 | 25 (≈ 68.4 µM) | 12.5 (≈ 34.2 µM) | > 50 |
| O=C1C(Cl)=C(N(c2ccccc2)c2ccccc2)C(=O)c2ccccc21 | > 50 | 25 (≈ 69.5 µM) | 25 (≈ 69.5 µM) | – | – | 12.5 (≈ 34.7 µM) | 25 (≈ 69.5 µM) | 50 (≈ 139 µM) | 12.5 (≈ 34.7 µM) | 50 (≈ 139 µM) | 6.25 (≈ 17.4 µM) |
| O=C1C(Nc2ccccc2)=C(Sc2ccccc2)C(=O)c2ccccc21 | > 50 | 25 (≈ 69.9 µM) | > 50 | – | – | – | – | – | – | – | – |
| OC(Cn1cncn1)(Cn1cncn1)c1ccc(F)cc1F [FLUCONAZOLE] | – | – | – | – | – | 1 (≈ 3.27 µM) | 0.5 (≈ 1.63 µM) | 2 (≈ 6.53 µM) | 1 (≈ 3.27 µM) | 1.56 (≈ 5.09 µM) | 2 (≈ 6.53 µM) |
| NC1=C(Sc2ccccc2)C(=O)c2ccccc2C1=O | > 50 | 1.56 (≈ 5.54 µM) | 6.25 (≈ 22.2 µM) | – | – | 12.5 (≈ 44.4 µM) | 25 (≈ 88.9 µM) | 6.25 (≈ 22.2 µM) | 12.5 (≈ 44.4 µM) | 12.5 (≈ 44.4 µM) | 25 (≈ 88.9 µM) |
| N#Cc1ccccc1NC1=C(Cl)C(=O)c2ccccc2C1=O | – | – | – | – | – | 25 (≈ 81 µM) | 50 (≈ 162 µM) | > 50 | 50 (≈ 162 µM) | > 50 | > 50 |
| Cn1c(N)c2ccccc2nc2c(=O)c3ccccc3c(=O)c1=2 | 25 (≈ 82.4 µM) | 50 (≈ 165 µM) | > 50 | – | – | 50 (≈ 165 µM) | 50 (≈ 165 µM) | 25 (≈ 82.4 µM) | > 50 | 25 (≈ 82.4 µM) | 25 (≈ 82.4 µM) |
| Clc1ccc(COC(Cn2ccnc2)c2ccc(Cl)cc2Cl)c(Cl)c1 (configuration not stated) [MICONAZOLE] | – | – | – | – | – | – | 12.5 (≈ 30 µM) | 12.5 (≈ 30 µM) | 25 (≈ 60.1 µM) | < 0.78 | – |
| N#Cc1ccccc1NC1=C(Nc2ccccc2C#N)C(=O)c2ccccc2C1=O | – | – | – | – | – | 50 (≈ 128 µM) | 25 (≈ 64 µM) | > 50 | > 50 | > 50 | > 50 |

| Molecule | MIC (Escherichia coli) [µg/mL] | MIC (Klebsiella pneumoniae; ATCC 27736, 24 h) [µg/mL] | MIC (Staphylococcus aureus; ATCC 25923, 24 h) [µg/mL] | MIC (Klebsiella pneumoniae) [µg/mL] | MIC (Staphylococcus aureus) [µg/mL] | MIC (Candida parapsilosis) [µg/mL] | MIC (Cryptococcus neoformans) [µg/mL] | MIC (Aspergillus fumigatus) [µg/mL] | MIC (Candida albicans) [µg/mL] | MIC [1] [µg/mL] | MIC (Sporothrix schenckii) [µg/mL] |
| --- | --- | --- | --- | --- | --- | --- | --- | --- | --- | --- | --- |
| O=C1C(Nc2ccc(O)cc2)=C(Sc2ccccc2)C(=O)c2ccccc21 | > 50 | > 50 | 50 (≈ 134 µM) | – | – | – | – | – | – | – | – |
| O=C1C(Nc2ccccc2)=C(Sc2cccc3ccccc23)C(=O)c2ccccc21 | – | – | – | – | – | > 50 | > 50 | > 50 | 50 (≈ 123 µM) | > 50 | > 50 |
| O=C1C(Sc2ccccc2)=C(N(c2ccccc2)c2ccccc2)C(=O)c2ccccc21 | > 50 | 50 (≈ 115 µM) | 50 (≈ 115 µM) | – | – | – | – | – | – | – | – |
| O=C1C(Sc2cccc3ccccc23)=C(N(c2ccccc2)c2ccccc2)C(=O)c2ccccc21 | – | – | – | – | – | > 50 | > 50 | 50 (≈ 103 µM) | 25 (≈ 51.7 µM) | 50 (≈ 103 µM) | > 50 |
| COc1ccc2[nH]c3c(=O)c4ccccc4c(=O)c=3sc2c1 | 25 (≈ 80.8 µM) | > 50 | 12.5 (≈ 40.4 µM) | – | – | – | – | – | – | – | – |
| C[C@@H]1[C@H](O)[C@@H](C)/C=C/C=C/C=C/C=C/C=C/C=C/C=C/[C@H](O[C@@H]2O[C@H](C)[C@@H](O)[C@H](N)[C@@H]2O)C[C@@H]2O[C@](O)(C[C@@H](O)C[C@@H](O)[C@H](O)CC[C@@H](O)C[C@@H](O)CC(=O)O[C@H]1C)C[C@H](O)[C@H]2C(=O)O [AMPHOTERICIN B] | – | – | – | – | – | – | 0.78 (≈ 0.844 µM) | – | 0.39 (≈ 0.422 µM) | 1.56 (≈ 1.69 µM) | – |
| O=C1C(Cl)=C(Sc2cccc3ccccc23)C(=O)c2ccccc21 | 25 (≈ 71.3 µM) | > 50 | > 50 | – | – | – | – | – | – | – | – |
| NYSTATIN | – | – | – | – | – | – | 3.5 | – | 7.8 | – | 13.2 |
| NC[C@H]1O[C@H](O[C@H]2[C@H](O)[C@@H](O[C@H]3O[C@H](CO)[C@@H](O)[C@H](N)[C@H]3O)[C@H](N)C[C@@H]2N)[C@H](N)C[C@@H]1O [TOBRAMYCIN] | 0.5 (≈ 1.07 µM) | 1 (≈ 2.14 µM) | 0.25 (≈ 0.535 µM) | – | – | – | – | – | – | – | – |
| O=C1C(Cl)=C(Nc2ccccc2)C(=O)c2ccccc21 | > 50 | > 50 | > 50 | – | – | > 50 | > 50 | > 50 | > 50 | > 50 | > 50 |
| O=C1C(Cl)=C(NCCN2C(=O)c3ccccc3C2=O)C(=O)c2ccccc21 | 6.25 (≈ 16.4 µM) | 50 (≈ 131 µM) | 6.25 (≈ 16.4 µM) | – | – | – | – | – | – | – | – |
| NC[C@H]1O[C@H](O[C@H]2[C@H](O)[C@@H](O[C@H]3O[C@H](CO)[C@@H](O)[C@H](N)[C@H]3O)[C@H](N)C[C@@H]2N)[C@H](O)[C@@H](O)[C@@H]1O [KANAMYCIN] | 16 (≈ 33 µM) | 32 (≈ 66 µM) | 2 (≈ 4.13 µM) | – | – | – | – | – | – | – | – |
| N#Cc1ccccc1NC1=C(Br)C(=O)c2ccccc2C1=O | – | – | – | – | – | 12.5 (≈ 35.4 µM) | 12.5 (≈ 35.4 µM) | > 50 | 25 (≈ 70.8 µM) | 6.25 (≈ 17.7 µM) | > 50 |
| COc1cccc(SC2=C(Cl)C(=O)c3ccccc3C2=O)c1 | 12.5 (≈ 37.8 µM) | > 50 | 25 (≈ 75.6 µM) | – | – | – | – | – | – | – | – |
| NC1=C(Sc2cccc3ccccc23)C(=O)c2ccccc2C1=O | > 50 | 12.5 (≈ 37.7 µM) | 12.5 (≈ 37.7 µM) | – | – | 50 (≈ 151 µM) | 50 (≈ 151 µM) | 25 (≈ 75.4 µM) | 25 (≈ 75.4 µM) | 25 (≈ 75.4 µM) | > 50 |
